Measurements: patent US20100143890A1 (priority 2008, published 2010)

System: AI virus proteins (3425P and 3427P, ProSci Inc.); H5 protein
Format: binding, avian influenza virus

SMILES | binding properties compared with commercially available antibody
CC(=O)N[C@H]1[C@H]([C@H](O)[C@H](O)CO)O[C@@](O[C@H]2[C@@H](O)[C@@H](CO)O[C@@H](O[C@H]3[C@H](O)[C@@H](O)C(O)O[C@@H]3CO)[C@@H]2O)(C(=O)O)C[C@@H]1O (some centres unmarked) [3-silaiic-lactose] | not active
CC(=O)NC1C(O)CC(OCC2OC(OC3C(CO)OC(O)C(O)C3O)C(O)C(O)C2O)(C(=O)O)OC1C(O)C(O)CO (centres unmarked) [6′-sialic lactose] | not active
